In assay [1] the test system is cigarette smoke (CS)-induced airway disease. It is filed as in vivo, BALB/c mice. Particulars: for weight gained compared to start weight: CS-exposed. The method, then: The 14 day dose-finding study was therefore followed by a 90 day study using essentially the same apparatus and protocol described in Example 4 above. On this occasion, the 5 treatment groups were as follows: • 1. Daily exposure to clean air (Placebo Group; Gr. 1) • 2. Daily exposure to CS (CS-Exposed Placebo Group; Gr. 2) • 3. Daily exposure to CS; treated with NBMI at a 30 mg/kg dose (NBMI 30 mg/kg Group; Gr. 3) • 4. Daily exposure to CS; treated with NBMI at a 60 mg/kg dose (NBMI 60 mg/kg Group; Gr. 4) • 5. Daily exposure to CS; treated with NBMI at a 150 mg/kg dose (NBMI 150 mg/kg Group; Gr. 5) On Day 91, animals were weighed and anesthetised with pentobarbital sodium (90 mg/kg body weight, i.p.). Mice were tracheotomised with an 18-gauge cannula and mechanically ventilated in a quasi-sinusoidal fashion with a small animal ventilator (flexiVent™, SCIREQ®) at a frequency of 3 Hz and a tidal volume (VT) of 12 ml/kg body weight. A positive end-expiratory pressure of 3 cm H2O was applied. The animal's cardiac output was monitored throughout the respiratory mechanics assessment. Mice were paralysed with pancuronium (0.1 mg/kg body weight, i.p. (local suppliers)) before 4 sigh manoeuvres at 3×VT were performed at the beginning of the experiment to establish stable baseline respiratory mechanics and to ensure a similar volume history before the experiment. Dynamic lung mechanics were measured by applying a sinusoidal standardised breath and analysed using the single compartment model and multiple linear regression, giving respiratory resistance (RRS), elastance (ERS) and compliance (CRS). The measurement of RRS reflects both narrowing of the conducting airways and alterations in the lung. The measurement of CRS and ERS reflects only events in the lung periphery, particularly airway closure leading to lung unit de-recruitment. By contrast, a selective change in CRS is indicative of a more distal site of action. More thorough evaluations of lung mechanics were made using forced oscillation technique (FOT) according to Jonasson et al., Respir. Res., 9, 23 (2008) and Respir. Physiol. Neurobiol., 165, 229 (2009). The parameters obtained from the FOT measurements in this study were: Newtonian resistance (RN), tissue damping (G), which is closely related to tissue resistance and reflects energy dissipation in the lung tissues; and tissue elastance (H), which characterises tissue stiffness and reflects energy storage in the tissues. Dynamic pressure-volume (PV) curves were determined by inflating the lungs to a maximum pressure of 30 cm H2O, allowing passive exhalation using the computer-controlled Flexivent ventilator for measuring volume and pressure. Individual results from each animal were compiled. All PV-measurements were performed in triplicate. Quasi-static PV loops were obtained by a slow stepwise inflation and deflation of the lungs. PV loops were performed for PEEP-levels, 3 cm H2O. The shape factor (k) of the descending limb of the PV loop was calculated by fitting the data to the Salazar-Knowles equation. The value of the parameter k is believed to change characteristically with both fibrosis and emphysema. The quasi-static compliance (Cst) and elastance (Est) and the volume air inspired sufficient to reach 20 cm water were also obtained. Bronchoalveolar lavage (BAL) was carried out essentially as described in Example 4 above, as was flow cytometry analysis of cells from BAL and analysis of inflammatory mediators in BAL and serum. Frozen lung tissue was homogenised together with 1 mL PBS in a 2 mL tube, using a mixer mill (Retch mm400) for 2 minutes at 4° C. Immediately after homogenisation, the tube was centrifuged for 15 minutes (1500 rpm, 4° C.). The supernatant was removed and saved for protein concentration determination using a NanoDrop spectrophotometer (Proteins A280). After analysing the protein content, equal amounts of protein from each sample were saved for the transforming growth factor beta (TGFβ) 1-3 analysis. […]

The subject of assay [2] is COPD. Put plainly: Treatment of patient with COPD. The assay is classed as in vivo, human. The method, then:
A retired person residing in the USA, who had been medically diagnosed with COPD several years earlier, regularly experienced coughing fits two to four times in any 24 hour period, beginning at any hour of the day or night and lasting from about 40 to 75 minutes. As a consequence of these coughing fits, the patient's breathing was shallow, their throat irritated, their voice was raspy, their energy levels very low and their quality of life very poor.

[3] abbreviates: by the eighth day, 100 mg capsule three times daily.

The structures appear in SMILES notation. Like-named read-outs stand apart in the source and are kept apart here.

On to `O=C(NCCS)c1cccc(C(=O)NCCS)c1` [NBMI, N,N-bis-2-mercaptoethyl isophthalamide], for which the “respiratory function (PV-curves) vs placebo group Gr. 2” value in assay [1] (30, 60 and 150 mg/kg) is “did not display significantly changed respiratory function”. The “macrophages in BAL fluid” value in assay [1] (30, 60 and 150 mg/kg, Day 90) is “did not have significantly lower numbers of macrophages”. In addition, the “weight gained compared to start weight” value is 1.0 ± 0.4 g in assay [1] (Day 90, Gr. 3, 30 mg/kg); 0.7 ± 0.2 g in assay [1] (Day 90, Gr. 4, 60 mg/kg); 0.6 ± 0.2 g in assay [1] (Day 90, Gr. 5, 150 mg/kg). Besides, in assay [1] (FACS, NBMI-treated groups), the “percentage of T helper (CD4+/CD3+) and T cytotoxic (CD8+/CD3+) lymphocytes in BAL fluid” value was “not significant altered”. Further, the “neutrophils in BAL fluid” value in assay [1] (Gr. 4, 60 mg/kg) is “tendency to a lower number of neutrophils”; in assay [1] (Gr. 5, 150 mg/kg), “tendency to a lower number of neutrophils”. Further, in assay [1] (Gr. 5, 150 mg/kg, p<0.01), the “GM-CSF level in serum vs Gr. 2” value was “lowered”. In addition, in assay [1] (Gr. 5, 150 mg/kg, p<0.05), the “MIP-1β level in serum vs Gr. 2” value is “lowered”. The “T cytotoxic (CD8+/CD3+) lymphocytes in BAL fluid vs Gr. 2” value in assay [1] (NBMI-treated animals) is listed as “significant decrease”. Besides, the “lymphocytes in BAL fluid (tendency)” value in assay [1] (all NBMI-treated groups) is reported as “a lower number of lymphocytes”. The “TGFβ1-3 in lung homogenate vs Gr. 2” value in assay [1] (animals receiving NBMI) is “did not have significantly changed amount”. In addition, in assay [2] (100 mg capsule three times daily for eight days, one patient), the “symptoms of COPD” value is recorded as “marked improvement in symptoms”. For the same compound, the breathing entry in assay [2] (setting [3]) is recorded as “significantly improved breathing”. In addition, in assay [2] (setting [3]), the coughing fits entry is given as “no coughing fits”.

The values above are taken from patent publication US9782368B2, “Use of N,N-bis-2-mercaptoethyl isophthalamide” (EMERAMED LIMITED, priority 2014, dated 2017).
